# Source: patent US5476847A, “Derivatives of phosphinic acid useful as endothelin converting enzyme inhibitors” (priority 1994, dated 1995)
# Where a name gives a salt, the structure may show the parent alone. Ends that are not written are not given here.
# Key:
# ECE = experiment: BET Challenge Method (pressor response to BET-1 in anesthetized rats); conditions: BET-1 5 μg/kg
# Description: ECE in vivo activity is determined as described by Vemulapalli et al.,in Life Sciences, 53 (1993), pp. 783-793. Briefly, male Charles River CD rats (Wilmington, Mass.) weighing 250-275 g are anesthetized with Inactin, 100 mg/kg, ip. The trachea is catheterized. The right carotid artery and the right jugular vein are cannulated to record blood pressure (BP) and to infuse drugs, respectively. […] The rectal temperature is kept at 37° C. After an equilibration period of 15-30 min, the rats are infused with saline vehicle (20 μl/min) or test compounds (0.01-0.25 mg/kg/min) throughout the study. Thirty minutes after the start of infusion, the rats are challenged with BET-1 (5 μg/kg) via the venous catheter, and the BP is monitored for another 15 min.
# [1] = tested on: I/H-induced ET-1 release in isolated perfused guinea pig lungs; experiment: Isolated Perfused Guinea Pig Lung Method (ischemia/hypoxia, I/H); assay type: in vivo; conditions: for elevation in PIP produced by I/H (FIG. 4): subcutaneous
# Description: The method is as described by Vemulapalli et al., in J. PharmacoL Exp. Therap., 262, 3 (1992), pp. 1062-1069. Briefly, male Dunkin-Hartley guinea pigs (400-600 g) are anesthetized with pentobarbital 30 mg/kg, ip. The trachea is cannulated to facilitate respiration. The right jugular vein is cannulated to administer saline vehicle or test compound, or compounds are administered orally or subcutaneously. Ten minutes after the administration of saline vehicle or test compound, a thoracotomy is performed and the trachea, lungs and heart are removed intact and placed in warmed Tyrode's buffer (34°-35° C.) of the following composition in mM: NaCl 120, KCl 4.8, MgSO4.7H2 O 1.2, KH2 PO4 1.2, NaHCO3 25, CaCl2.2H2 O […], glucose 11 and BSA 0.5%. The pulmonary artery and trachea are cannulated and the lungs are mounted on a perfusion apparatus. Lungs are perfused at a rate of 3.2 ml/min via the pulmonary artery with oxygenated (95% O 2 and 5% CO2) Tyrode's solution maintained at 34°-35° C. The lungs are mechanically ventilated with room air with a volume of 2.5 ml/stroke and 50 strokes/min. Pulmonary insufflation pressure (PIP) is monitored through a side arm of the perfusion apparatus with a Statham pressure transducer and recorded on a Grass polygraph. Lungs are allowed to stabilize for 15 min. Lung effluents (50 ml) are collected every 15 min into chilled polypropylene centrifuge tubes (Corning) containing 100 μl each of aprotinin (200 kallikrein inhibitory units/ml) and soybean trypsin inhibitor (20N-α-benzoyl-L-arginine ethyl ester units/ml). Ischemia-hypoxia (I/H) is produced by cessation of ventilation and perfusion for 15 min followed by reperfusion and reventilation for 60 min. At the end of the experiment, the lungs are tested for cardiopulmonary reactivity by challenging with 5-hydroxy-tryptamine (0.5 mg) directly into the lungs via a pulmonary artery cannula.
# In a separate study, anesthetized guinea pigs are administered saline vehicle or test compound. Ten minutes later, the lungs are removed and mounted on a perfusion apparatus as described above. After an equilibration period of 15 min, BET-1 (30 μg over 15 min) or ET-1 (0.6 μg over 15 min) is infused directly into the perfusion medium and the effects on PIP in vehicle and test compound-treated guinea pig lungs are assessed.
# FIGS. 3 to 6 show the results of four compounds of the invention on I/H-induced ET-1 release in isolated perfused guinea pig lungs. The compounds include Compounds A and B, identified above, and: […]
# [2] = S. Bertenshaw, et al, J. Med. Chem., 36(1993); cited from earlier work
compound,measurement,setting,value
"CC(C)CC(CP(=O)(O)C(Cc1ccc2ccccc2c1)NC(=O)[C@H](CCCCNC(=O)OCc1ccccc1)NS(C)(=O)=O)C(=O)N[C@@H](Cc1c[nH]c2ccccc12)C(=O)O (stereo partly drawn) [Compound B, N-[2-[[hydroxy[1-[[2(S)-[(methylsulfonyl)amino]-1-oxo-6-[[phenylmethoxy)-carbonyl]amino]hexyl]amino]-2-(2-naphthalenyl)ethyl]phosphinyl]methyl]-4-methyl-1-oxopentyl]-L-tryptophan disodium salt]","effect on blood pressure response to BET-1 challenge, compared to vehicle (FIG. 2)","ECE; 0.1 mg/kg/min infusion, result in words",does not have an effect
same,"lower blood pressure in response to the BET-1 challenge, compared to vehicle (FIG. 2)",ECE; 0.3 mg/kg/min infusion,~22 mmHg
same,elevation in PIP produced by I/H (FIG. 4),"[1]; 3 mg/kg, 1 hour",attenuated
same,elevation in PIP produced by I/H (FIG. 4),"[1]; 10 mg/kg, 6 hours",attenuated
same,elevation in PIP produced by I/H (FIG. 4),"[1]; 30 mg/kg, 6 hours",attenuated
"CC(C)CC(CP(=O)(O)C(Cc1ccccc1)NC(=O)C(CC(C)C)NC(=O)OCc1ccccc1)C(=O)NC(Cc1c[nH]c2ccccc12)C(=O)O (centres unmarked) [Compound D, N-[2-[[hydroxy[2-[1-[4-methyl-1-oxo-2-[[(phenylmethoxy)carbonyl]amino]pentyl]amino]-2-phenylethyl]phosphinyl]methyl]-4-methyl-1-oxopentyl]-tryptophan]",ET-1 release following I/H (FIG. 6),"[1]; iv, 10 mg/kg",attenuation
"CS(=O)(=O)N[C@@H](CCCCN)C(=O)N[C@@H](Cc1ccccc1)P(=O)(O)CC1(C(=O)N[C@@H](Cc2c[nH]c3ccccc23)C(=O)[O-])CCCC1.[Li+] [Example 5, N-[[1-[[hydroxy-[1(R)-[[6-amino-2(S)-[(methylsulfonyl)amino]-1-oxohexyl]-amino]-2-phenylethyl]phosphinyl]methyl]cyclopentyl]carbonyl]-L-tryptophan lithium salt]","lower blood pressure in response to the BET-1 challenge, compared to vehicle (FIG. 1)",ECE; 0.1 mg/kg/min infusion,~15 mmHg
"ET-1: endothelin-1, peptide with potent vasoconstrictive and mitogenic activity (CSCSSLMDKECVYFCHLDIIW; ends and bridges not checked; cysteine pairing not given here; UniProt P05305 53-73, looked up)",times more potent than its precursor big-endothelin-1 (BET-1),[2],approximately 100 times
